Data taken from ChEMBL document CHEMBL1126695, “Orally active water-soluble N,O-acyl transfer products of a beta,gamma-bishydroxyl amide containing renin inhibitor” (J Med Chem, 1993).
≈ marks a conversion by molar mass, not a printed value. Values belong to the compound of their own block, whether it stands above or below them.

Columns and labels:
Assay type in all cases: ADME
[1] = Evaluated for the solubility in water at 5.8 pH of filtered solution; details: pH 5.8, read-out: S
[2] = Evaluated the half life period in distilled water at room temperature
[3] = Evaluated the half life period in CH3CN / buffer, pH 7.4 at 37 degree C
[4] = Evaluated for the solubility in pH 7.4 buffer suspended at 5 mg / mL at 7.4 pH of filtered solution
[5] = Evaluated for the solubility in water at 4.8 pH of filtered solution; details: pH 4.8, read-out: S
[6] = Evaluated for the solubility in 0.10 N HCl at 1.6 pH of filtered solution; details: pH 1.6, read-out: S
[7] = Evaluated for the solubility in pH 6.0 buffer suspended at 5 mg / mL at 6.0 pH of filtered solution
[8] = Evaluated for the solubility in water at 3.3 pH of filtered solution; details: pH 3.3, read-out: S
[9] = Evaluated for the solubility in 0.10 N HCl at 1.5 pH of filtered solution; details: pH 1.5, read-out: S
[10] = Evaluated for the solubility in water at 3.2 pH of filtered solution; details: pH 3.2, read-out: S
[11] = Evaluated for the solubility in 0.10 N HCl at 1.7 pH of filtered solution; details: pH 1.7, read-out: S

solubility [1]: 2 µg/mL (≈ 2.82 µM)
SMILES: CC(C)C[C@H](O)C(O)[C@H](CC1CCCCC1)NC(=O)[C@H](Cc1csc(N)n1)NC(=O)[C@H](Cc1ccccc1)NS(=O)(=O)N1CCOCC1 (stereo partly drawn)

half-life [2]: > 96 h
half-life [3]: 1 min
SMILES: CC(C)C[C@H](O)C(OC(=O)[C@H](Cc1csc(N)n1)NC(=O)[C@H](Cc1ccccc1)NS(=O)(=O)N1CCOCC1)[C@@H](N)CC1CCCCC1 (stereo partly drawn)

solubility [4]: 1 µg/mL
solubility [5]: 20 µg/mL
solubility [6]: 6600 µg/mL
solubility [7]: 1 µg/mL
SMILES: CC(C)C[C@H](O)C(O)[C@H](CC1CCCCC1)NC(=O)[C@H](Cc1csc(N)n1)NC(=O)[C@H](Cc1ccccc1)NS(=O)(=O)N1CCOCC1.Cl (stereo partly drawn)

solubility [8]: 17600 µg/mL
solubility [9]: 54600 µg/mL
SMILES: CC(C)C[C@H](O)C(OC(=O)[C@H](Cc1csc(N)n1)NC(=O)[C@H](Cc1ccccc1)NS(=O)(=O)N1CCOCC1)[C@@H](N)CC1CCCCC1.Cl (stereo partly drawn)

solubility [4]: 300 µg/mL
solubility [10]: 20900 µg/mL
solubility [11]: 71300 µg/mL
solubility [7]: 1940 µg/mL
SMILES: CC(C)C[C@H](OC(=O)[C@H](Cc1csc(N)n1)NC(=O)[C@H](Cc1ccccc1)NS(=O)(=O)N1CCOCC1)C(O)[C@@H](N)CC1CCCCC1.Cl (stereo partly drawn)
